Laboratory results published in publication PMC10400593, “Molecular insights into Spindlin1-HBx interplay and its impact on HBV transcription from cccDNA minichromosome” (Nature Communications, 2023).
Several values for one entry are separate records, joined by “and”; a condition that tells them apart may be missing. Equal entries are not always repeated. Entries after “also recorded” stand apart in the source; their conditions may differ. Where two headings read alike, the source gives them in different places. Where no end group is shown, it is not given here.

What was measured:
[1] = biological target: T1, human Spindlin1_50–262 (Homo sapiens, UniProt Q9Y657); type: binding; set-up: Human Spindlin1_50–262 was cloned into pGEX-6P-1 vector containing an N-terminal GST tag; GST (N, cleaved yes); made in house; host or cells: E. coli BL21(DE3); conditions: 25 °C; for ΔS / ΔH / K (association constant): ITC, pH 7.5, free wild-type Spindlin1_50–262; for ΔH / N / K (association constant): mean ± SE; for N: ITC stoichiometry, free wild-type Spindlin1_50–262; for K (association constant): One Set of Binding Sites fit
Description: Cells were harvested and lysed in lysis buffer: 0.2 M NaCl, 20 mM Tris, pH 8.0 containing 1 mM fresh PMSF. After centrifugation, the GST-tagged Spindlin1_50–262 was purified by a GST affinity column and then the GST tag was cleaved on-column by a home-made P3C protease overnight. The tag-free protein was collected for an anion-exchange chromatography over a HiTrap Q HP column and Superdex G75 columns (GE Healthcare). The Spindlin1_50–262 protein was concentrated to 25 mg/ml in 0.15 M NaCl, 20 mM Tris, pH 8.0, aliquoted and stored at −80 °C for future use. All Spindlin1_50–262 mutants were generated by the QuikChange site-directed mutagenesis strategy and purified using the same procedure as described above.
(§1) Calorimetric experiments were conducted at 25 °C with a MicroCal PEAQ-ITC instrument (Malvern Instruments) as previously described. The Spindlin1_50–262 samples were extensively dialyzed against the buffer containing 20 mM HepesNa (pH 7.5) and 150 mM NaCl. Protein concentration was determined by absorbance spectroscopy at 280 nm. Peptide concentrations were determined by weighing in large quantities. Each ITC titration consisted of 17 successive injections with 0.4 μl for the first and 2.4 μl for the rest. The intervals between injections were 180 s, and the stirring speed was 750 rpm. […] Acquired calorimetric titration data were fitted at 95% confidence and analyzed using Origin 7.0 (GE Healthcare) using the One Set of Binding Sites fitting model. Data represent the mean ± SE. Detailed thermodynamic parameters of each titration are summarized in the Supplementary Table 2.

[2] = biological target: Spindlin1_50-262 & HBx2-21 (Homo sapiens, UniProt Q9Y657); conditions: ITC; for K (association constant): 25 °C, pH 7.5, mean ± SE; for N / ΔH: mean ± SE
Description: Cells were harvested and lysed in lysis buffer: 0.2 M NaCl, 20 mM Tris, pH 8.0 containing 1 mM fresh PMSF. […] The tag-free protein was collected for an anion-exchange chromatography over a HiTrap Q HP column and Superdex G75 columns (GE Healthcare).
as §1, with “Protein” for “Calorimetric experiments were conducted at 25 °C with a MicroCal PEAQ-ITC instrument (Malvern Instruments) as previously described. The Spindlin1_50–262 samples were extensively dialyzed against the buffer containing 20 mM HepesNa (pH 7.5) and 150 mM NaCl. Protein”

[3] = biological target: T1, human Spindlin1_50–262; test: ITC
[4] = system: HBeAg; conditions: ectopic expression in Spindlin1 knockdown cells
Description: (§2) Mutations in full-length Spindlin1 were generated by site-directed mutagenesis and confirmed by DNA sequencing. Plasmid DNA and siRNA transfections were performed using Lipofectamine 3000 reagent (Invitrogen) and Lipofectamine RNAiMAX (Invitrogen) according to the manufacturer’s protocol, respectively.
For infections, cells were incubated with viral supernatants in the presence of 10 µg/ml polybrene.
For siRNA knockdown experiments of HepG2-NTCP cells, the siRNAs (sequences are listed in the Supplementary Table 4) were transfected at 3dpi, and incubated with cells for 24 h. Then the cells were maintained in PMM with 2% FBS with regular medium changing every other day. For cccDNA formation experiment, the siRNAs were transfected 48 h before infection and incubated with cells for 24 h. Then the cells were cultured with PMM medium for another […]. The cells were then infected with HBV at 800GEQ in the presence of 5% PEG8000 for 24 h at 37 °C.
HBeAg levels of HBV infected cells were measured using ELISA kits (Wantai Pharm Inc). Supernatants from HBV infected cells were harvested at each time point examined in the various assays and were diluted 4-fold with DMEM before ELISA.

[5] = system: HBx; conditions: Huh7 cells, 48 h after co-transfection, WB
Description: as §2

[6] = system: HBV RNA; test: Rescue of HBV transcription/expression in Spindlin1 knockdown HepG2-NTCP cells; type: cell-based; conditions: ectopic expression in Spindlin1 knockdown cells
Description: Cells were harvested with TRIzol™ Reagent (Invitrogen, Carlsbad, CA). The RNA was extracted and precipitated with equal volumes of isopropanol. The RNA pellet was washed with 75% ethanol and dissolved in DEPC-treated H2O. The RNA solution with 1xRNA loading buffer was incubated at 65 °C heat block for 5 min and put on ice for 5 min. Then the RNA sample was subjected to 1.2% agarose gel electrophoresis (with 1xMOPS buffer and 5% formaldehyde solution) and transferred onto Amersham Hybond-N+ membrane (GE Healthcare). After UV crosslinking, the RNA was detected with DIG-labeled full-length HBV genome and DIG-labeled GAPDH probe (DIG-high prime DNA-labeling and detection starter kit II, Roche, cat. No. 11585614910).

[7] = biological target: T2, Human Spindlin1 50-262 (human, UniProt Q9Y657 50-262); test: ITC; conditions: both partners purified
T2 construct: also called SPIN1; not shown: GST, N-terminal, cleaved

[8] = biological target: T2, Human Spindlin1 50-262; test: ITC; conditions: both partners purified; remark: listed apart in the source
[9] = biological target: T2, Human Spindlin1 50-262; test: ITC; conditions: both partners purified; remark: listed apart in the source
[10] = biological target: T2, Human Spindlin1 50-262; test: ITC; conditions: both partners purified; remark: listed apart in the source
[11] = listed as wild-type (WT) Spindlin1

Chain of Spindlin1_50-262 & HBx2-21 (Q9Y657 whole entry, looked up): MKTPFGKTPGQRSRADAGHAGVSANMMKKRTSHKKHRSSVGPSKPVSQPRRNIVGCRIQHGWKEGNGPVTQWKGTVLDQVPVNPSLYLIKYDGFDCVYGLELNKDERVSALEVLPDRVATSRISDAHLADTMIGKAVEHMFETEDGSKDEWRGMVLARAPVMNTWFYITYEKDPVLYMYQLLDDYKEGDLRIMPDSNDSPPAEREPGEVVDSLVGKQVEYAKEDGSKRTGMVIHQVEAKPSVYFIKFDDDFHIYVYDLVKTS
T1 sequence (Q9Y657 50-262): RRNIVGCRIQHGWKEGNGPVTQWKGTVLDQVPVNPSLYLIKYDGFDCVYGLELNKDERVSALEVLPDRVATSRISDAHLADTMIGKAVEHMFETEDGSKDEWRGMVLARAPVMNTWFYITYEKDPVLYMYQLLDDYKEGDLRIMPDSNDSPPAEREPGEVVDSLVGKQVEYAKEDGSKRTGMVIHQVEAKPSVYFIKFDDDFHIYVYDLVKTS
T2 sequence (Q9Y657 50-262): as above

Work on “AARLCCQLDPARDVLCLRPV-NH2 [HBx-D2-21, HBx-D N-terminal motif peptide]” yielded a ΔS [1] of 18.0 cal/mol/deg and a ΔH [1] of -3096± 42.71 kal/mol.

Molecule “AARLCCQLDSARDVLLLRPF-NH2 [WHx, woodchuck HBx N-terminal motif peptide]” has a ΔS [1] of 9.96 cal/mol/deg and a ΔH [1] of -4600± 130.4 kal/mol.

For “AARLCCQLDSSRDVLLLRPL-NH2 [GSHBx, ground squirrel HBx N-terminal motif peptide]”, the ΔS [1] was 25.3 cal/mol/deg and the ΔH [1] was -987.3± 23.4 kal/mol.

In the case of “ARTK(m e3)QTAR(me2a)KSTGGKAPRKQL-NH2 [H31-20 K4me3R8me2a]”, the N [1] is reported as 1.0± 0.004, the ΔS [1] is reported as -23.6 cal/mol/deg and the “K (association constant)” value [1] is reported as 3.2e+07 ± 5.15e+06 M⁻¹. The ΔH [1] was -17280± 115.8 kal/mol, the ΔS [2] was -22.0 cal/mol/deg and the “K (association constant)” value [2] was 4.74e+07 ± 7.62e+06 M⁻¹. The N [2] was 1.0± 0.003 and the ΔH [2] was -17040± 96.9 kal/mol.

For “ARTK(m e3)QTARK(me2)STGGKA-NH2 [H31-15 K4me3K9me2]”, the N [1] was 1.0± 0.002, the ΔS [1] was -15.3 cal/mol/deg and the “K (association constant)” value [1] was 4.18e+07 ± 4.82e+06 M⁻¹. The ΔH [1] was -14960± 61.22 kal/mol, the ΔS [2] was -12.1 cal/mol/deg and the “K (association constant)” value [2] was 1.74e+08 ± 9.28e+07 M⁻¹. It also gave an N [2] of 1.0± 0.004 and a ΔH [2] of -14860± 139.6 kal/mol.

“Ac-CSFSSAGPCALRFTSARRME-NH2 [HBx61-80, HBx array peptide]” showed a ΔS [1] of -1.7 cal/mol/deg and a ΔH [1] of -6319± 252.7 kal/mol.

“Ac-GKGGAKRHRK (me3)VLRDNIQGIT-NH2 [H411-30 K20me3]” showed an N [1] of 1.0± 0.016, a ΔS [1] of -12.3 cal/mol/deg and a ΔH [1] of -12920± 254.2 kal/mol. For the same molecule, the N [2] was 0.9± 0.010 and 1.0± 0.001.

Ac-PARDVLCLRPIGAESRGRPL-NH2 [HBx11-30] showed a ΔS [1] of 8.2 cal/mol/deg and a ΔH [1] of -3496± 197.8 kal/mol.

HBx2-21 V15R peptide was tested, and the stoichiometry N [3] was 1.

With “HBx_(2–21) peptide (from UniProt Q69607) L18R” the Kd [3] was 35.8 µM.

For “HBx_(2–21) peptide (from UniProt Q69607) V15R”, the Kd [3] was 14.4 µM.

HBx_(11–30) peptide was tested, and the fold weaker binding than HBx (2–21) [3] was 44 fold.

HBx_(61–80) peptide was tested, and the fold weaker binding than HBx (2–21) [3] was 55 fold.

For K216S/V218R double mutant, the “Restoration of HBeAg levels” value [4] was “not the K216S/V218R double mutant that effectively restored”, the “Interaction with HBx (Co-IP)” value [5] was “disrupted Spindlin1-HBx engagement both in vitro and in cellular context” and the “Interaction with HBx (Co-IP)” value ([5]; listed as Spindlin1 K216S/V218R) was “significantly compromised”.

In the case of W72R, the “Restoration of HBV transcription/expression” value [6] is reported as “not its H3K4me3 and H3K9me3-binding deficient mutants”.

“wild-type Spindlin1: ectopically expressed wild-type Spindlin1” was tested, and the “Restoration of HBeAg levels” value [4] was “effectively restored the levels of HBV transcription and HBeAg”, the “Restoration of HBeAg levels” value [4, 11] was “restore the levels of HBV transcription and HBeAg” and the “Restoration of HBV transcription/expression” value [6] was “effectively restored the levels of HBV transcription and HBeAg; also recorded: restored HBV expression”. For the same molecule, the “Restoration of HBV transcription/expression” value [6, 11] was “restore the levels of HBV transcription and HBeAg”.

B1: HBx11-30 peptide (peptide)
peptide: Ac-PARDVLCLRPIGAESRGRPL-NH2
notes: source: synthetic peptide, bought: Scilight Biotechnology LLC
In the case of B1, the Ka [7] is reported as 22600 M⁻¹, the “stoichiometry N” value [7] is reported as 1.2 and the Kd [8] is reported as 45.9 µM.

B2: H3 1-15 K4me3K9me2 peptide (peptide)
peptide: ARTK(me3)QTARK(me2)STGGKA
notes: also called H3K4me3K9me2; source: synthetic peptide, bought: Scilight Biotechnology LLC
In the case of B2, the Ka [7] is reported as 4.18e+07 M⁻¹ and the Kd [9] is reported as 0.0242 µM.

B3: HBx-D2-21 peptide (peptide)
peptide: AARLCCQLDPARDVLCLRPV-NH2
modifications: cysteine pairing not given here
notes: as for B1
In the case of B3, the Ka [7] is reported as 1.56e+06 M⁻¹, the “stoichiometry N” value [7] is reported as 0.951 and the Kd [10] is reported as 0.7 µM.

B4: WHx2-21 peptide (woodchuck HBx) (peptide)
peptide: AARLCCQLDSARDVLLLRPF-NH2
modifications: cysteine pairing not given here
notes: also called FWHx; source: synthetic peptide, bought: Scilight Biotechnology LLC
With B4 the Ka [7] was 354000 M⁻¹, the “stoichiometry N” value [7] was 0.9 and the Kd [10] was 2.9 µM.

B5: GSHBx2-21 peptide (ground squirrel HBx) (peptide)
peptide: AARLCCQLDSSRDVLLLRPL-NH2
modifications: cysteine pairing not given here
notes: as for B1
For B5, the Ka [7] was 1.83e+06 M⁻¹, the “stoichiometry N” value [7] was 1.1 and the Kd [10] was 0.62 µM.

B6: HBx61-80 peptide (peptide)
peptide: Ac-CSFSSAGPCALRFTSARRME-NH2
modifications: cysteine pairing not given here
notes: as for B1
In the case of B6, the Ka [7] is reported as 18200 M⁻¹, the “stoichiometry N” value [7] is reported as 1 and the Kd [8] is reported as 55.5 µM.
